{"source": "patent US4609673A", "about": "“Carboxylic acid derivatives, processes for the preparation thereof and pharmaceutical compositions containing them” (Boehringer Mannheim GmbH, priority 1984, dated 1986)", "key": {"Rat hepatocytes": {"tested_on": "Rat hepatocytes", "assay": "14C-acetate incorporation into cholesterol (cholesterol biosynthesis) in rat hepatocytes", "format": "cell-based", "settings": "Hepatocyte, end concentration about 10^-5 M, 48 h incubation, DMSO, related to solvent treated control", "protocol": "Rat hepatocytes were isolated according to Berry and Friend (J. Cell Biol., 43, 506-520 (1969)) and cultured as described by Davis et al. (J. Biol. Chem., 254, 2010-2016 (1979)). 2-^14 C-Acetate was used as a precursor for determination of the cholesterol biosynthesis. Newly synthetized cholesterol was determined by liquid scintillation spectrometry after extraction of radiolabelled sterols from the culture medium (Can. J. Biochem. Physiol., 37, 912-917 (1959)). The test compounds were dissolved in dimethylsulfoxide. 1 μl of this solution was given to 1 ml of the culture medium. The percentage of inhibition of ^14 C-acetate incorporation is related to a solvent treated control.\nThe compounds listed in the following table were tested with respect to their effect on the rate hepatocytes according to the method mentioned above. The compounds were dissolved in DMSO. 1 μl of this solution was added to 1 ml of the culture medium.\nThe end concentration was about 10^-5 M, the period of the incubation was 48 h. The ^14 C-acetate incorporation in cholesterol was determined."}, "HMG-CoA-reductase": {"tested_on": "HMG-CoA-reductase", "settings": "cited from earlier work"}, "HMG-CoA synthase": {"tested_on": "HMG-CoA synthase", "settings": "J. Biol. Chem., 257, 2842/1982; cited from earlier work"}, "citrate synthase": {"tested_on": "citrate synthase", "settings": "Angew. Chem., 92, 133/1980; cited from earlier work"}}, "data": [{"smiles": "CC(CC(=O)NCCSCCC(C)(C)CC(=O)O)NC(=O)c1ccccc1", "note": "(stereo not drawn) [Example 15d, 9,13-diaza-10,14-dioxo-14-phenyl-6-thia-3,3,12-trimethyltetradecanoicacid]", "values": [{"measurement": "inhibition at 10 µM", "setting": "Rat hepatocytes", "result": 12, "unit": "%"}]}, {"smiles": "CC[C@H](C)C(=O)O[C@H]1CCC=C2C=C[C@H](C)[C@H](CC[C@@H]3C[C@@H](O)CC(=O)O3)[C@H]21", "note": "[Compactin, 2-Methylbutanoic acid 1,2,3,7,8,8α-hexahydro-7-methyl-8-[2-(tetrahydro-4-hydroxy-6-oxo-2H-pyran-2-yl)ethyl]-1-naphthalenyl ester]", "values": [{"measurement": "inhibition at 10 µM", "setting": "Rat hepatocytes", "result": 59, "unit": "%"}, {"measurement": "inhibitor of HMG-CoA reductase (in words)", "setting": "HMG-CoA-reductase; comparison compound", "result": "potent inhibitor"}]}, {"smiles": "CC(O)(CCSCCNC(=O)CCNC(=O)[C@H](O)C(C)(C)COP(=O)(O)OP(=O)(O)OC[C@H]1O[C@@H](n2cnc3c(N)ncnc32)[C@H](O)[C@@H]1OP(=O)(O)O)CC(=O)O", "note": "(stereo partly drawn) [3-hydroxy-3-methyl-4-carboxybutyl-coenzyme A]", "values": [{"measurement": "inhibiting action on the enzyme HMG-CoA-reductase (in words)", "setting": "HMG-CoA-reductase; FEBS Letters, 128, 145/1981", "result": "possesses an inhibiting action"}]}, {"smiles": "O=C(O)CCCCSCCNC(=O)CNCc1ccccc1", "note": "[Example 16, 9,12-Diaza-10-oxo-13-phenyl-6-thiatridecanoic acid]", "values": [{"measurement": "inhibition at 10 µM", "setting": "Rat hepatocytes", "result": 10, "unit": "%"}]}, {"smiles": "CC(O)(CCSCCNC(=O)CCNC(=O)C(O)C(C)(C)CO)CC(=O)O", "note": "(stereo not drawn) [Example 2, 9,13-Diaza-10,14-dioxo-6-thia-3,15,17-trihydroxy-3,16,16-trimethylheptadecanoic acid]", "values": [{"measurement": "inhibition at 10 µM", "setting": "Rat hepatocytes", "result": 33, "unit": "%"}]}, {"smiles": "CC(=O)CCSCCNC(=O)CCNC(=O)[C@H](O)C(C)(C)COP(=O)(O)OP(=O)(O)OC[C@H]1O[C@@H](n2cnc3c(N)ncnc32)[C@H](O)[C@@H]1OP(=O)(O)O", "note": "[3-oxobutyl-coenzyme A]", "values": [{"measurement": "substrate for HMG-CoA synthase (in words)", "setting": "HMG-CoA synthase", "result": "substrate"}]}, {"smiles": "CC(C)(COP(=O)(O)OP(=O)(O)OC[C@H]1O[C@@H](n2cnc3c(N)ncnc32)[C@H](O)[C@@H]1OP(=O)(O)O)[C@@H](O)C(=O)NCCC(=O)NCCSCCC(O)(CC(=O)O)C(=O)O", "note": "(stereo partly drawn) [3,4-dicarboxy-3-hydroxybutylcoenzyme A]", "values": [{"measurement": "inhibiting action on the enzyme citrate synthase (in words)", "setting": "citrate synthase", "result": "exerts an inhibiting action"}]}, {"smiles": "CCOC(=O)CC(C)(C)CCSCCNC(=O)CCNC(=O)C(O)C(C)(C)CO", "note": "(stereo not drawn) [Example 11, 9,13-Diaza-15,17-dihydroxy-10,14-dioxo-3,3,16,16-tetramethyl-6-thiaheptadecanoic acid ethyl ester]", "values": [{"measurement": "inhibition at 10 µM", "setting": "Rat hepatocytes", "result": 28, "unit": "%"}]}]}
